# Test results: patent US10793519B2, “Ultra short acting anti-arrhythmic agents” (Academic Pharmaceuticals Incorporated, priority 2018, dated 2020)
# Like-named read-outs stand apart in the source and are kept apart here.
# Key:
# [1] = cited from earlier work
# hERG channel = hERG channel (Homo sapiens, UniProt Q12809); assay: whole-cell voltage-clamp tail current / current density experiments in hERG-HEK cells
# Experimental: A set of whole-cell, voltage-clamp experiments was performed using a HEKA® EPC 9 amplifier. Data was recorded and analyzed using the HEKA® Patchmaster and Fitmaster software. At the time of the recordings, cell culture media was replaced by a bath solution (containing (mM): 137 NaCl, 4 KCl, 1.8 CaCl2, 10 HEPES, and 10 glucose, pH adjusted to 7.4 with NaOH). The pipette solution containing different concentrations of the drug to test was introduced. Borosilicate glass electrodes (tip resistant 2-5 MΩ) were filled with internal solution (containing (mM): 130 KCl, 1 MgCl2, 5 EGTA, 5 MgATP and 10 HEPES, pH adjusted to 7.2 with KOH). Tail currents were measured at repolarizing test potentials (−100 to +40 mV, 4 seconds each) following a one second depolarizing step to +60 mV from a holding potential of −80 mV. Cell recordings were performed in a minimum of 2 plates (3-5 cells/plate) for each EFV concentration and compared to control.
# In hERG-HEK cells that were transiently […] with CYP2B6*1 cDNA, tail current recordings were performed using the following 2-sweep voltage clamp protocol: membrane potential was held at −80 mV, increased to 60 mV (1 second), and currents were measured during two repolarizing steps at −100 and −20 mV (5 seconds each). This protocol was performed twice for each cell at 1 and 2 minutes following cytosolic access and exposure to the pipette solution to evaluate the influence of incubation time on drug mediated alterations in hERG channel conductivity. A sigmoidal Emax model was fit to the EFV inhibitory effect on 1hERG using Prism (GraphPad Software, Inc., La Jolla, Calif.).
# Sotalol ester, soestolol (ester A, Table 1, Example 1) and its corresponding acid (ester C) were evaluated. The studies were performed blinded with the operator unaware of the chemical structure of Ester A or Ester C.
# hERG channel, sequence (Q12809 whole entry): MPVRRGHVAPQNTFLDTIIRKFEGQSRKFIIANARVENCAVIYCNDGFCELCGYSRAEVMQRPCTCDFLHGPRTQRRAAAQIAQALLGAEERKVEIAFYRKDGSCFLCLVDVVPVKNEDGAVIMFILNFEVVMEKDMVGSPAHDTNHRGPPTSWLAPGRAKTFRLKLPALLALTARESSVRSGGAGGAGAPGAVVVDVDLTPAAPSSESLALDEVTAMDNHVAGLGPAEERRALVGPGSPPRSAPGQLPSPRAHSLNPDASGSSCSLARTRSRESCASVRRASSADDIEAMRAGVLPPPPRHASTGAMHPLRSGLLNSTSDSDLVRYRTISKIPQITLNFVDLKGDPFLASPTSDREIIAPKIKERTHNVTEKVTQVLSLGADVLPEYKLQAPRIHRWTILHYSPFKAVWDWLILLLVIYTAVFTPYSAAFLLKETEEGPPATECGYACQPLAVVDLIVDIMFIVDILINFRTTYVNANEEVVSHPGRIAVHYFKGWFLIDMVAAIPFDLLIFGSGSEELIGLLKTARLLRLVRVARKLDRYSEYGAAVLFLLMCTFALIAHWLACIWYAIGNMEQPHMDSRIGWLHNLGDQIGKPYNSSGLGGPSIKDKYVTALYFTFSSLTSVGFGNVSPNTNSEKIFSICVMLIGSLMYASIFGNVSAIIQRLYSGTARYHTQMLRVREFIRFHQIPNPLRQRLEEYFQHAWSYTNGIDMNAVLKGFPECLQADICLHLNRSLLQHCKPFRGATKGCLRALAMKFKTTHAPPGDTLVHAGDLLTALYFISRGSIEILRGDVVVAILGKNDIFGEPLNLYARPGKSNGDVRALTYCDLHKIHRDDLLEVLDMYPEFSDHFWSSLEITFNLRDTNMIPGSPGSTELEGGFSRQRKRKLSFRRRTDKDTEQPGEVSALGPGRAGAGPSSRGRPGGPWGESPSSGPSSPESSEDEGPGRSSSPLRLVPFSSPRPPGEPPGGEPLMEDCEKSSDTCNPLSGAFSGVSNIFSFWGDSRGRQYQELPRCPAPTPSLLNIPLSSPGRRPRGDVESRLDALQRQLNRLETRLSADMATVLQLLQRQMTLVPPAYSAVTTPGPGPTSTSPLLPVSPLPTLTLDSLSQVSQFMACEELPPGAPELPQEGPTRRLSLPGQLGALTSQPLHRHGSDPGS
smiles,measurement,setting,value
CC(C)NCC(O)c1ccc(NS(C)(=O)=O)cc1 (stereo not drawn) [sotalol],half-life,"[1]; in man, on average",twelve
same,terminal elimination half-life,[1]; in vivo,10 to 20 h
same,"reduction in current, FIG. 2",hERG channel; 5 μM,dose related reduction in current
same,"reduction in current, FIG. 2",hERG channel; 50 μM,dose related reduction in current
same,"inhibition of K current (current density), FIG. 1",hERG channel; 5 μm,reduction in current
same,"inhibition of K current (current density), FIG. 1",hERG channel; 10 μm,further reduction
CC(C)NCC(O)c1ccc(NS(=O)(=O)CC(=O)O)cc1 (stereo not drawn) [Ester C],"activity on current, FIG. 2",hERG channel,no activity
COC(=O)CS(=O)(=O)Nc1ccc(C(O)CNC(C)C)cc1 (stereo not drawn) [Ester A],"inhibition of K current (current density), FIG. 1",hERG channel,dose dependent reduction in current
same,"potency on K current compared with sotalol, FIG. 1",hERG channel,significantly more potent than the corresponding sotalol dose
